Results: patent US6908904B2, “Pharmaceutical preparation and method for treatment of diabetes” (priority 2000, dated 2005)

Legend:
[1] = uptake of radiolabeled sulfatide analogues in liver after intraperitoneal injection; type: in vivo; conditions: 150 nmol i.p., ob/ob mice, FIG. 6A; for degradation or accumulation in liver, 6 h vs 24 h: 6 h and 24 h after i.p.; for uptake in liver: tritium-labeled, scintillation counting
Source text: (§1) Native sulfatide isolated from pig brain and structurally characterized by mass spectrometry was modified with regard to the fatty acid composition and tritiated in the sphingosine base. These analogues were administrated intraperitoneally to diabetic ob/ob mice and their uptake in liver and pancreas analyzed after lipid extraction of dissected organs. The aim was to explore whether the exogenously administrated sulfatide was taken up by pancreas and thereby open a possibility to substitute for the quantitative and qualitative alterations of sulfatide seen in the diabetes type 2 models.
(§2) Sulfatide was tritium labeled in the ceramide portion by catalytic hydrogenation with Pd(OAc)2/NaB^3H4. The labeled sulfatide was mixed with unlabelled sulfatide to the required specific activity.
(§3) The fatty acid was removed from native pig brain sulfatide by weak alkaline methanolysis at 80° C. The formed lysosulfatide was, after chromatographic purification, reacylated with respective fatty acid chloride in aqueous sodium acetate-tetrahydrofuran.
(§4) These mice were 12 weeks old and the mean value of the highest blood glucose was […]. At sacrifice the mice were anaesthetized with CO2 and killed by dislocation of the neck vertebrae. This is outlined in Table 2. The liver and pancreas were dissected immediately. The organ were quick-frozen and thawed at analyses (within 4 days).
(§5) The organs were homogenized and the lipids extracted with chloroform/methanol/water. The lipid extracts were evaporated, re-dissolved in chloroform/methanol/water and separated by silica gel chromatography to remove other lipids. The sulfatide containing fraction was used for counting by scintillation.
(§6) The results of the scintillation measurement are presented in FIG. 6A and FIG. 6B—FIG. 6A presenting liver data and FIG. 6B pancreas data—as cpm uptake in total, cpm/mg wet weight of tissue, cpm/mg of tissue protein and % of given cpm residing in the organ

[2] = uptake of radiolabeled sulfatide analogues in pancreas after intraperitoneal injection; type: in vivo; conditions: 150 nmol i.p., ob/ob mice, FIG. 6B; for degradation or accumulation in pancreas, 6 h vs 24 h: 6 h and 24 h after i.p.; for uptake in pancreas: tritium-labeled, scintillation counting
Source text: as §1, §2, §3, §4, §5, §6

insulin crystals = assay: in vitro preservation of insulin crystals stored with sulfatide isoforms; conditions: compared to C24:0 analogue, native pig brain sulfatide and insulin stored without sulfatide, FIG. 5
Source text: The preservation of insulin crystals, a requirement for storage of an insulin pool that can be released upon raised blood glucose, is increased for sulfatide C16:0 compared to other sulfatide isoforms. […] This is illustrated in FIG. 5.

[3] = further uptake study of sulfatide analogues in pancreas (Example 3); type: in vivo; conditions: i.p., ob/ob mice; FIGS. 7-10
Protocol: These experiments were performed as in Example 3, but only the uptake in pancreas was studies.
ob/ob mice was thus given C12, C14, C16 och C18 analogues of sulfatide intraperitoneally in the way described above.
The results are illustrated in FIGS. 7-10.

[4] = system: T-cell response to insulin; assay: T-cell response to insulin; type: cell-based; conditions: sulfatide in combination with insulin
Source text: The fact that sulfatide is processed through the same intracellular route as insulin further supports the findings according to the invention. Sulfatide is involved in normal processing of insulin, from proinsulin to secreted monomeric insulin. It is involved in the folding and oxidation of proinsulin, and is thus required for insulin formation, it is involved in the preservation of insulin crystals in secretory granules, and is thus required for the storage of the insulin pool, prevents deterioration and fibril formation, and it is involved in the transformation of insulin from hexamer via dimer to monomer form at secretion, and this last conversion to monomer is required for biological activity. Furthermore, sulfatide might be needed in combination with insulin in order to affect the insulin receptors in a proper way and to avoid development of insulin resistance.

[5] = listed as C16:0 sulfatide analogue

Row | degradation or accumulation in liver, 6 h vs 24 h [1] | uptake in liver [1] | degradation or accumulation in pancreas, 6 h vs 24 h ([2]; listed as C8:0) | degradation or accumulation in pancreas, 6 h vs 24 h ([2]; listed as C 16) | degradation or accumulation in pancreas, 6 h vs 24 h [2, 5] | uptake in pancreas ([2]; listed as C16) | uptake in pancreas [2, 5] | uptake in pancreas (Example 3) [3] | degradation or accumulation in pancreas, 6 h vs 24 h ([2]; listed as C24) | Molecule | uptake in liver ([1]; listed as C8:0) | degradation or accumulation in pancreas, 6 h vs 24 h [2] | uptake in pancreas [2] | preservation of insulin crystals (insulin crystals) | preservation of insulin crystals (insulin crystals; listed as isoform of sulfatide with 16 carbon atoms in the fatty acid) | T-cell response to insulin [4]
1 | rapidly degraded | preferentially taken up in liver | no accumulation | – | – | – | – | – | – | CCCCCCCCCCCCC/C=C/[C@@H](O)[C@H](CO[C@@H]1O[C@H](CO)[C@H](O)[C@H](OS(=O)(=O)O)[C@H]1O)NC(=O)CCCCCCC [C8:0 analogue] | rapidly removed from circulation to the liver and degraded | neither accumulation or degradation was noticed | much lower than for the other two analogues | – | – | –
2 | slight accumulation | higher than for the C24:0 | – | accumulation | accumulation after 24 hours | efficiently taken up in pancreas | most efficiently taken up | most interesting results | – | CCCCCCCCCCCCC/C=C/[C@@H](O)[C@H](CO[C@@H]1O[C@H](CO)[C@H](O)[C@H](OS(=O)(=O)O)[C@H]1O)NC(=O)CCCCCCCCCCCCCCC [C16:0 analogue] | – | – | – | significant effect on the preservation | significant effect on the preservation of insulin crystals | –
3 | – | – | – | – | – | – | – | – | – | galactosylceramide-3-O-sulfate [sulfatide] | – | – | – | – | – | inhibited the T-cell response to insulin

Row | Molecule | degradation or accumulation in liver, 6 h vs 24 h [1] | uptake in liver [1] | degradation or accumulation in pancreas, 6 h vs 24 h ([2]; listed as C8:0) | degradation or accumulation in pancreas, 6 h vs 24 h ([2]; listed as C 16) | degradation or accumulation in pancreas, 6 h vs 24 h [2, 5] | uptake in pancreas ([2]; listed as C16) | uptake in pancreas [2, 5] | uptake in pancreas (Example 3) [3] | degradation or accumulation in pancreas, 6 h vs 24 h ([2]; listed as C24) | uptake in liver ([1]; listed as C8:0) | degradation or accumulation in pancreas, 6 h vs 24 h [2] | uptake in pancreas [2] | preservation of insulin crystals (insulin crystals) | preservation of insulin crystals (insulin crystals; listed as isoform of sulfatide with 16 carbon atoms in the fatty acid) | T-cell response to insulin [4]
4 | CCCCCCCCCCCCC/C=C/[C@@H](O)[C@H](CO[C@@H]1O[C@H](CO)[C@H](O)[C@H](OS(=O)(=O)O)[C@H]1O)NC(=O)CCCCCCCCCCCCCCCCCCCCCCC [C24:0 analogue] | slight reduction | lower uptake in liver as compared to the C8:0 analogue | – | – | – | – | – | – | slight degradation | – | slight reduction | efficiently taken up in pancreas | – | – | –
